Experimental data published in PubChem BioAssay (NCI).
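Interpolation was linear, between the two tested concentrations surrounding the appropriate level; five concentrations were tested over 48 hours in 96-well plates. Here, GI50 denotes the concentration required for 50% inhibition of growth. The concentration for full growth arrest is given as TGI.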

Columns and labels:
Experiment in all cases: growth of human tumour cells (NCI), 48 h
[1] = test system: NCI-H460 lung
[2] = test system: SK-OV-3 ovarian
[3] = test system: TK-10 renal
[4] = test system: SF-539 CNS
[5] = test system: CAKI-1 renal
[6] = test system: PC-3 prostate
[7] = test system: SF-295 CNS
[8] = test system: HT29 colon
[9] = test system: 786-0 renal
[10] = test system: LOX IMVI melanoma
[11] = test system: HCC-2998 colon
[12] = test system: CCRF-CEM leukemia
[13] = test system: HCT-15 colon
[14] = test system: BT-549 breast
[15] = test system: T-47D breast
[16] = test system: HS 578T breast
[17] = test system: MDA-MB-231 breast
[18] = test system: OVCAR-8 ovarian
[19] = test system: HCT-116 colon
[20] = test system: NCI-H226 lung
[21] = test system: SF-268 CNS
[22] = test system: M14 melanoma
[23] = test system: UO-31 renal
[24] = test system: KM12 colon
[25] = test system: SR leukemia
[26] = test system: A498 renal
[27] = test system: A549 NSCLC
[28] = test system: IGROV1 ovarian
[29] = test system: OVCAR-4 ovarian

Q: How did the GI50 [1] turn out when O=C(NNc1nc2cc(F)c(F)cc2n2cccc12)c1ccncn1 was run?
A: 161 nM

Q: And the TGI [1]?
A: 9.46 µM

Q: And the GI50 [2]?
A: 522 nM

Q: What about the TGI [2] of the same molecule?
A: 5.16 µM

Q: What about the GI50 [3] of the same molecule?
A: 547 nM

Q: What about the TGI [3] of the same molecule?
A: 5.18 µM

Q: And the GI50 [4]?
A: 596 nM

Q: And the TGI [4]?
A: 6.3 µM

Q: What about the GI50 [5] of the same molecule?
A: 286 nM

Q: What about the TGI [5] of the same molecule?
A: 4.22 µM

Q: And the GI50 [6]?
A: 309 nM

Q: And the TGI [6]?
A: > 13.4 µM

Q: And the GI50 [7]?
A: 156 nM

Q: And the TGI [7]?
A: 3.87 µM

Q: What about the GI50 [8] of the same molecule?
A: 395 nM

Q: And the TGI [8]?
A: 15.3 µM

Q: What about the GI50 [9] of the same molecule?
A: 1010 nM

Q: What about the TGI [9] of the same molecule?
A: 6.64 µM

Q: And the GI50 [10]?
A: 191 nM

Q: And the TGI [10]?
A: 5.11 µM

Q: And the GI50 [11]?
A: 452 nM

Q: What about the TGI [11] of the same molecule?
A: 4.55 µM

Q: What about the GI50 [12] of the same molecule?
A: 142 nM

Q: And the TGI [12]?
A: > 30 µM

Q: What about the GI50 [13] of the same molecule?
A: 119 nM

Q: And the TGI [13]?
A: 5.52 µM

Q: And the GI50 [14]?
A: 1400 nM

Q: What about the TGI [14] of the same molecule?
A: 8.94 µM

Q: What about the GI50 [15] of the same molecule?
A: 353 nM

Q: What about the TGI [15] of the same molecule?
A: 5.17 µM

Q: And the GI50 [16]?
A: 2940 nM

Q: What about the TGI [16] of the same molecule?
A: 20.4 µM

Q: What about the GI50 [17] of the same molecule?
A: 839 nM

Q: What about the TGI [17] of the same molecule?
A: 6.95 µM

Q: What about the GI50 [18] of the same molecule?
A: 253 nM

Q: And the TGI [18]?
A: 9.55 µM

Q: And the GI50 [19]?
A: 217 nM

Q: And the TGI [19]?
A: 5.43 µM

Q: What about the GI50 [20] of the same molecule?
A: 381 nM

Q: And the TGI [20]?
A: 5.66 µM

Q: What about the GI50 [21] of the same molecule?
A: 408 nM

Q: And the TGI [21]?
A: 9.39 µM

Q: And the GI50 [22]?
A: 370 nM

Q: What about the TGI [22] of the same molecule?
A: 8.6 µM

Q: What about the GI50 [23] of the same molecule?
A: 140 nM

Q: What about the TGI [23] of the same molecule?
A: 4.19 µM

Q: And the GI50 [24]?
A: 331 nM

Q: What about the TGI [24] of the same molecule?
A: 12.5 µM

Q: What about the GI50 [25] of the same molecule?
A: 146 nM

Q: What about the TGI [25] of the same molecule?
A: > 12.3 µM

Q: And the GI50 [26]?
A: 1140 nM

Q: And the TGI [26]?
A: 5.62 µM

Q: And the GI50 [27]?
A: 275 nM

Q: What about the TGI [27] of the same molecule?
A: 20.2 µM

Q: What about the GI50 [28] of the same molecule?
A: 206 nM

Q: And the TGI [28]?
A: 4.87 µM

Q: What about the GI50 [29] of the same molecule?
A: 180 nM

Q: What about the TGI [29] of the same molecule?
A: 3.61 µM
